From ChEMBL document CHEMBL1148306, “Reducing the peptidyl features of caspase-3 inhibitors: a structural analysis” (J Med Chem, 2004)

Molecular target: T1, Caspase-3 (Homo sapiens, UniProt P42574)
T1 sequence (P42574 whole entry): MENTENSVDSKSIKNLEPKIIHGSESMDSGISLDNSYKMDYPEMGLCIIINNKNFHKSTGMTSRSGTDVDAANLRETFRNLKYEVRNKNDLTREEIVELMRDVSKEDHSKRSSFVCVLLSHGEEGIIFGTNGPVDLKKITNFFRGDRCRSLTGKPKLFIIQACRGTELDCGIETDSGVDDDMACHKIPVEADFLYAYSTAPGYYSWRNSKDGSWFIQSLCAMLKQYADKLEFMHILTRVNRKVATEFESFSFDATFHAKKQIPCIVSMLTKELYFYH
Experiment: Inhibitory concentration of compound against caspase-3

- IC50: 17.7 nM
SMILES: COc1ccc(Br)cc1CC(=O)N[C@H](C(=O)N[C@@H](CC(=O)O)C(=O)CSCc1ccccc1)C(C)C
